From patent US20250262201A1, “COMPOUNDS AND METHODS USEFUL FOR STABILIZING PHENYLALANINE HYDROXYLASE MUTATIONS” (Agios Pharmaceuticals, Inc., priority 2022, published 2025) come the findings set out here.

This experiment deals with T1, human PAH with the R408W mutation (Homo sapiens, UniProt P00439, R408W).
T1 construct: expressed in transfected cells
T1 sequence (P00439 1-452 R408W): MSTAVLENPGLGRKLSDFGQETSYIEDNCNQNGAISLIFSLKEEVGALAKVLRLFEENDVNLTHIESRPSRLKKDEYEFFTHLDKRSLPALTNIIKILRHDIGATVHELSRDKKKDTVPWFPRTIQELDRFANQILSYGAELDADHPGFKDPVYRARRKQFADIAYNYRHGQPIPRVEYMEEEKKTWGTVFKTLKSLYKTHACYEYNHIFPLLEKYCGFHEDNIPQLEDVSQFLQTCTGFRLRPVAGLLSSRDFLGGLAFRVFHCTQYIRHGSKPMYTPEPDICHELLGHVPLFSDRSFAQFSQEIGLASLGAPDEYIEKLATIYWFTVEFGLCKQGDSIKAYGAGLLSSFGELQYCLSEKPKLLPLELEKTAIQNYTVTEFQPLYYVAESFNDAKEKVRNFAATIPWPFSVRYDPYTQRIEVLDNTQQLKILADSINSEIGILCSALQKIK
In words: Cell Based Phenylalanine Flux Assay. Conditions: A375 cells expressing human R408W PAH; 24 hrs compound incubation; 13C-Tyrosine by LC-MS; average where tested multiple times; read-out: AC50.
A word on the AC50: it is the concentration at which the activity in the assay is half-maximal. With `O=C(c1nnc(-c2ncccn2)o1)N1CCc2[nH]cnc2[C@H]1c1cc2ccccc2cn1` [Example 473, (R)-(4-(isoquinolin-3-yl)-6,7-dihydro-1H-imidazo[4,5-c]pyridin-5(4H)-yl)(5-(pyrimidin-2-yl)-1,3,4-oxadiazol-2-yl)methanone], the AC50 is less than 500 nM.

For the compound `O=C(c1cnn2cc(N3CCC(F)CC3)ccc12)N1CCc2[nH]cnc2[C@H]1c1cc2ccccc2cn1` [Example 474, (R)-(6-(4-fluoropiperidin-1-yl)pyrazolo[1,5-a]pyridin-3-yl)(4-(isoquinolin-3-yl)-6,7-dihydro-1H-imidazo[4,5-c]pyridin-5(4H)-yl)methanone], the AC50 was 1000 to 5000 nM.

Regarding `O=C(c1cnn2cc(-c3cccnc3)ccc12)N1CCc2[nH]cnc2[C@H]1c1cc2ccccc2cn1` [Example 475, (R)-(4-(isoquinolin-3-yl)-6,7-dihydro-1H-imidazo[4,5-c]pyridin-5(4H)-yl)(6-(pyridin-3-yl)pyrazolo[1,5-a]pyridin-3-yl)methanone], the AC50 was less than 500 nM.

For the compound `O=C(c1cnn2cc(-c3ccncn3)ccc12)N1CCc2[nH]cnc2[C@H]1c1cc2ccccc2cn1` [Example 476, (R)-(4-(isoquinolin-3-yl)-6,7-dihydro-1H-imidazo[4,5-c]pyridin-5(4H)-yl)(6-(pyrimidin-4-yl)pyrazolo[1,5-a]pyridin-3-yl)methanone], the AC50 is less than 500 nM.

For the compound `O=C(c1cnn2cc(-c3cnccn3)ccc12)N1CCc2[nH]cnc2[C@H]1c1cc2ccccc2cn1` [Example 477, (R)-(4-(isoquinolin-3-yl)-6,7-dihydro-1H-imidazo[4,5-c]pyridin-5(4H)-yl)(6-(pyrazin-2-yl)pyrazolo[1,5-a]pyridin-3-yl)methanone], the AC50 is less than 500 nM.

Take `O=C(c1cnn2cc(N3CCC(O)CC3)ccc12)N1CCc2[nH]cnc2[C@H]1c1cc2ccccc2cn1` [Example 478, (R)-(6-(4-hydroxypiperidin-1-yl)pyrazolo[1,5-a]pyridin-3-yl)(4-(isoquinolin-3-yl)-6,7-dihydro-1H-imidazo[4,5-c]pyridin-5(4H)-yl)methanone]: the AC50 was 500 to 1000 nM.

`Cc1cccc(-c2ccc3c(C(=O)N4CCc5[nH]cnc5[C@H]4c4cc5ccccc5cn4)cnn3c2)n1` [Example 479, (R)-(4-(isoquinolin-3-yl)-6,7-dihydro-1H-imidazo[4,5-c]pyridin-5(4H)-yl)(6-(6-methylpyridin-2-yl)pyrazolo[1,5-a]pyridin-3-yl)methanone]: the concentration at half-maximal activity (AC50) was less than 500 nM.

As to `Cc1ncccc1-c1ccc2c(C(=O)N3CCc4[nH]cnc4[C@H]3c3cc4ccccc4cn3)cnn2c1` [Example 480, (R)-(4-(isoquinolin-3-yl)-6,7-dihydro-1H-imidazo[4,5-c]pyridin-5(4H)-yl)(6-(2-methylpyridin-3-yl)pyrazolo[1,5-a]pyridin-3-yl)methanone], the half-maximal activity concentration (AC50) is less than 500 nM.

For the compound `Cn1ccc(-c2ccc3c(C(=O)N4CCc5[nH]cnc5[C@H]4c4cc5ccccc5cn4)cnn3c2)n1` [Example 481, (R)-(4-(isoquinolin-3-yl)-6,7-dihydro-1H-imidazo[4,5-c]pyridin-5(4H)-yl)(6-(1-methyl-1H-pyrazol-3-yl)pyrazolo[1,5-a]pyridin-3-yl)methanone], the concentration at half-maximal activity (AC50) was less than 500 nM.

Regarding `O=C(c1cnn2cc(-c3ncccc3F)ccc12)N1CCc2[nH]cnc2[C@H]1c1cc2ccccc2cn1` [Example 482, (R)-(6-(3-fluoropyridin-2-yl)pyrazolo[1,5-a]pyridin-3-yl)(4-(isoquinolin-3-yl)-6,7-dihydro-1H-imidazo[4,5-c]pyridin-5(4H)-yl)methanone], the AC50 is less than 500 nM.

On to `O=C(c1cnn2cc(-c3ncccn3)ccc12)N1CCc2[nH]cnc2[C@H]1c1cc2ccccc2cn1` [Example 483, (R)-(4-(isoquinolin-3-yl)-6,7-dihydro-1H-imidazo[4,5-c]pyridin-5(4H)-yl)(6-(pyrimidin-2-yl)pyrazolo[1,5-a]pyridin-3-yl)methanone], for which the AC50 was less than 500 nM.

Turning to `O=C(c1cnn2cc(CN3CCOCC3)ccc12)N1CCc2[nH]cnc2[C@H]1c1cc2ccccc2cn1` [Example 484, (R)-(4-(isoquinolin-3-yl)-6,7-dihydro-1H-imidazo[4,5-c]pyridin-5(4H)-yl)(6-(morpholinomethyl)pyrazolo[1,5-a]pyridin-3-yl)methanone], the AC50 is less than 500 nM.

For `O=C(c1cnn2cc(-c3ccccc3)ccc12)N1CCc2[nH]cnc2[C@H]1c1cc2ccccc2cn1` [Example 485, (R)-(4-(isoquinolin-3-yl)-6,7-dihydro-1H-imidazo[4,5-c]pyridin-5(4H)-yl)(6-phenylpyrazolo[1,5-a]pyridin-3-yl)methanone], the concentration at half-maximal activity (AC50) is less than 500 nM.

As for `O=C(c1cnn2cc(-c3ccncc3)ccc12)N1CCc2[nH]cnc2[C@H]1c1cc2ccccc2cn1` [Example 486, (R)-(4-(isoquinolin-3-yl)-6,7-dihydro-1H-imidazo[4,5-c]pyridin-5(4H)-yl)(6-(pyridin-4-yl)pyrazolo[1,5-a]pyridin-3-yl)methanone], the concentration at half-maximal activity (AC50) is less than 500 nM.

`O=C(c1cnn2cc(-c3cncnc3)ccc12)N1CCc2[nH]cnc2[C@H]1c1cc2ccccc2cn1` [Example 487, (R)-(4-(isoquinolin-3-yl)-6,7-dihydro-1H-imidazo[4,5-c]pyridin-5(4H)-yl)(6-(pyrimidin-5-yl)pyrazolo[1,5-a]pyridin-3-yl)methanone]: the AC50 is less than 500 nM.

As to `CN1CCN(Cc2ccc3c(C(=O)N4CCc5[nH]cnc5[C@H]4c4cc5ccccc5cn4)cnn3c2)CC1` [Example 488, (R)-(4-(isoquinolin-3-yl)-6,7-dihydro-1H-imidazo[4,5-c]pyridin-5(4H)-yl)(6-((4-methylpiperazin-1-yl)methyl)pyrazolo[1,5-a]pyridin-3-yl)methanone], the AC50 was less than 500 nM.

In the case of `O=C(c1cnn2cc(N3CCCC3)ccc12)N1CCc2[nH]cnc2[C@H]1c1cc2ccccc2cn1` [Example 489, (R)-(4-(isoquinolin-3-yl)-6,7-dihydro-1H-imidazo[4,5-c]pyridin-5(4H)-yl)(6-(pyrrolidin-1-yl)pyrazolo[1,5-a]pyridin-3-yl)methanone], the AC50 is less than 500 nM.

For the compound `Cc1nnc(C(=O)N2CC3(CC3)c3[nH]cnc3[C@H]2c2cc3ccccc3cn2)o1` [Example 490, (R)-(4′-(isoquinolin-3-yl)spiro[cyclopropane-1,7′-imidazo[4,5-c]pyridin]-5′(1′H,4′H,6′H)-yl)(5-methyl-1,3,4-oxadiazol-2-yl)methanone], the AC50 was less than 500 nM.

Take `Cc1ncoc1C(=O)N1CC2(CC2)c2[nH]cnc2[C@@H]1c1cc2ccccc2cn1` [Example 492, (S)-(4′-(isoquinolin-3-yl)spiro[cyclopropane-1,7′-imidazo[4,5-c]pyridin]-5′(1′H,4′H,6′H)-yl)(4-methyloxazol-5-yl)methanone]: the AC50 is more than 5000 nM.

Turning to `Cc1ncoc1C(=O)N1CC2(CC2)c2[nH]cnc2[C@H]1c1cc2ccccc2cn1` [Example 493, (R)-(4′-(isoquinolin-3-yl)spiro[cyclopropane-1,7′-imidazo[4,5-c]pyridin]-5′(1′H,4′H,6′H)-yl)(4-methyloxazol-5-yl)methanone], the AC50 was less than 500 nM.

Regarding `C[C@@H]1CN(C(=O)c2nnc(-c3ccc(F)cn3)o2)[C@H](c2cc3ccccc3cn2)c2nc[nH]c21` [Example 494, (5-(5-fluoropyridin-2-yl)-1,3,4-oxadiazol-2-yl)((4R,7R)-4-(isoquinolin-3-yl)-7-methyl-6,7-dihydro-1H-imidazo[4,5-c]pyridin-5(4H)-yl)methanone], the AC50 lay within 1000 to 5000 nM.
